Laboratory results as given in patent US10501461B2, “Tyrosine amide derivatives as Rho-kinase inhibitors” (CHIESI FARMACEUTICI S.P.A., priority 2017, dated 2019).
pKi: −log10 of the molar value.

Experiments:
Rho kinase 1 (ROCK-I) = Rho kinase 1 (ROCK-I) (Homo sapiens, UniProt Q13464); experiment: In vitro Rho kinase inhibitory activity assay (ADP-Glo), Rho kinase 1; type: biochemical; settings: 10 μM ATP, 25° C., expressed as range of activity
Method: (§1) The effectiveness of compounds of the present invention to inhibit Rho kinase activity can be determined in a 10 μl assay containing 40 mM Tris pH7.5, 20 mM MgCl2 0.1 mg/ml BSA, 50 μM DTT and 2.5 μM peptide substrate (Myelin Basic Protein) using an ADP-Glo kit (Promega). Compounds were dissolved in DMSO such that the final concentration of DMSO was 1% in the assay. All reactions/incubations are performed at 25° C. Compound (2 ul) and either Rho kinase 1 or 2 (4 μl) were mixed and incubated for 30 mins. Reactions were initiated by addition of ATP (4 μl) such that the final concentration of ATP in the assay was 10 μM. After a 1 hour incubation 10 μl of ADP-Glo Reagent was added and after a further 45 minute incubation 20 ul of Kinase Detection Buffer was added and the mixture incubated for a further 30 minutes. The luminescent signal was measured on a luminometer. […] Compounds were tested in dose-response format and the inhibition of kinase activity was calculated at each concentration of compound. To determine the IC50 (concentration of compound required to inhibit 50% of the enzyme activity) data were fit to a plot of % inhibition vs Log10 compound concentration using a sigmoidal fit with a variable slope and fixing the maximum to 100% and the minimum to 0%. To determine the Ki values the Cheng-Prusoff equation was utilized (Ki=IC50/(1+[S]/Km).

Rho kinase 2 (ROCK-II) = Rho kinase 2 (ROCK-II) (Homo sapiens, UniProt O75116); experiment: In vitro Rho kinase inhibitory activity assay (ADP-Glo), Rho kinase 2; type: biochemical; settings: 10 μM ATP, 25° C., expressed as range of activity
Method: as §1

Sequence of Rho kinase 1 (ROCK-I) (Q13464 whole entry): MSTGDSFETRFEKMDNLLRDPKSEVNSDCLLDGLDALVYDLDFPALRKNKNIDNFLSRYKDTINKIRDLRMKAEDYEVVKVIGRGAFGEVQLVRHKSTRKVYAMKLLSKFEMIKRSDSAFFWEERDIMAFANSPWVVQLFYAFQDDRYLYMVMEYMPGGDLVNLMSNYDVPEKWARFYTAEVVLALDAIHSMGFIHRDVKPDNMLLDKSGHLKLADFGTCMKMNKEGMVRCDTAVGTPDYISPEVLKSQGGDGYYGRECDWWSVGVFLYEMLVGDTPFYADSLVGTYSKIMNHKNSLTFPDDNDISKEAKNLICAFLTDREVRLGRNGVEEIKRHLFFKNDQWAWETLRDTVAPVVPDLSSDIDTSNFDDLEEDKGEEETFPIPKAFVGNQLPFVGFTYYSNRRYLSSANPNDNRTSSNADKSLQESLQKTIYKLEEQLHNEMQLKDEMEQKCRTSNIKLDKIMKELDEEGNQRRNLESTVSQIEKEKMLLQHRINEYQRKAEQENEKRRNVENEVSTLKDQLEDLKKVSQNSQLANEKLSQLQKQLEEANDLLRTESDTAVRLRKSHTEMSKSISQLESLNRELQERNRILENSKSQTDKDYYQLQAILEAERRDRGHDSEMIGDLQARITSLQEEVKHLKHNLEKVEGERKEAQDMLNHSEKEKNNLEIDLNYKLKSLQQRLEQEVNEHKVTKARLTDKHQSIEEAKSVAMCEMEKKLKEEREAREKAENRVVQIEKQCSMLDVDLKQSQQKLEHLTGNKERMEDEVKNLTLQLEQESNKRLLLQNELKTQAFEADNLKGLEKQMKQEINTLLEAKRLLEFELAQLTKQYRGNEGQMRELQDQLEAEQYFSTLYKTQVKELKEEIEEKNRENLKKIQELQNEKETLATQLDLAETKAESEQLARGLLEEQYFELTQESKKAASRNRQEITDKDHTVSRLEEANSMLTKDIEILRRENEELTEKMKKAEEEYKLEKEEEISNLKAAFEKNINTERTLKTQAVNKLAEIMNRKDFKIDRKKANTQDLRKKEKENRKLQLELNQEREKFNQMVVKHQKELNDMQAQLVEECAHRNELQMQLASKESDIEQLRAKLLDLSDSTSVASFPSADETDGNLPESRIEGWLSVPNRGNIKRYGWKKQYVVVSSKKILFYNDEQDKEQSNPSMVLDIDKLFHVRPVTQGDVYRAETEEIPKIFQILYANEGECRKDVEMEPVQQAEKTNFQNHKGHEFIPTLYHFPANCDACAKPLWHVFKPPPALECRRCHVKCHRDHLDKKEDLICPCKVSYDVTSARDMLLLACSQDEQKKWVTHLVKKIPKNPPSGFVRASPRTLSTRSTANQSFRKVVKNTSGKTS
Sequence of Rho kinase 2 (ROCK-II) (O75116 whole entry): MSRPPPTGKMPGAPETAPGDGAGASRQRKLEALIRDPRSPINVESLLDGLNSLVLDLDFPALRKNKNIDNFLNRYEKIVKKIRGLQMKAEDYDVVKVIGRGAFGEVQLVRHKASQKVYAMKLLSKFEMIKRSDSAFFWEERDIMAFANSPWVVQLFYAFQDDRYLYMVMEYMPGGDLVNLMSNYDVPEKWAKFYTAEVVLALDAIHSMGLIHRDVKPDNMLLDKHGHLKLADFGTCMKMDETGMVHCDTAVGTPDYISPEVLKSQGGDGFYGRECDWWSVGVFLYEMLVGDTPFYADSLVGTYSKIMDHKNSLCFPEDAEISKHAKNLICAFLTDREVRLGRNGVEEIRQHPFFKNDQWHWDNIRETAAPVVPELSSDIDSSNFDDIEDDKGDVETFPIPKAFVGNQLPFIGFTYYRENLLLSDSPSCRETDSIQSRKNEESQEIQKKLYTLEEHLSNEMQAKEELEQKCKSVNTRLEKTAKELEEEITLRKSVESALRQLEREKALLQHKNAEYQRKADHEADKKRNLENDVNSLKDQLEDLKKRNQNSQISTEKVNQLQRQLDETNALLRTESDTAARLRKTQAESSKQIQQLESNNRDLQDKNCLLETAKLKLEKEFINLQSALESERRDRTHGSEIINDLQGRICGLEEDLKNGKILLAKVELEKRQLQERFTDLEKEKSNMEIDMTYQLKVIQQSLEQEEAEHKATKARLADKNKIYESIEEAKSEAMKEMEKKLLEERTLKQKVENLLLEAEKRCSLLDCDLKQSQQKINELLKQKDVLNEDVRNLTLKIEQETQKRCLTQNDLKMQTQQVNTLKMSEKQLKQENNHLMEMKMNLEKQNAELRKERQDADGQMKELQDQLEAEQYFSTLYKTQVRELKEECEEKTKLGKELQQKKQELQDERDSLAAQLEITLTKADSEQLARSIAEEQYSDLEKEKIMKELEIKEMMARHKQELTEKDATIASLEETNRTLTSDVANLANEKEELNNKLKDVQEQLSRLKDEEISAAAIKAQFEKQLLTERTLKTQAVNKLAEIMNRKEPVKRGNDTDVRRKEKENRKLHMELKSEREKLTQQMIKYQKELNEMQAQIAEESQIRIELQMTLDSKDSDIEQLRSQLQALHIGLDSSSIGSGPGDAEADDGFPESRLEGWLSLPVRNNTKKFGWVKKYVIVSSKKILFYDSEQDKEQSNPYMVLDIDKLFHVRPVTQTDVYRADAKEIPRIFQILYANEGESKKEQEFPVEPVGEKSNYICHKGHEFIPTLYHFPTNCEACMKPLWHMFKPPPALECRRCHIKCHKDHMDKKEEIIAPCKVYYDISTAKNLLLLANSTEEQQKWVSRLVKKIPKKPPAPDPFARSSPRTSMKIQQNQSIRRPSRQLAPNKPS

## Cc1c[nH]c2nccc(Oc3ccc(C[C@H](N)C(=O)N4CCC(Cc5ccccc5)CC4)cc3F)c12 [Example 13, (S)-2-amino-1-(4-benzylpiperidin-1-yl)-3-(3-fluoro-4-((3-methyl-1H-pyrrolo[2,3-b]pyridin-4-yl)oxy)phenyl)propan-1-one]
Rho kinase 1 (ROCK-I)
  pKi: > 8.52
Rho kinase 2 (ROCK-II)
  pKi: > 8.52

## N[C@@H](Cc1ccc(Oc2ccnc3[nH]cc(CO)c23)c(F)c1)C(=O)N1CCN(Cc2ccccn2)CC1 [Example 213, (S)-2-amino-3-(3-fluoro-4-((3-(hydroxymethyl)-1H-pyrrolo[2,3-b]pyridin-4-yl)oxy)phenyl)-1-(4-(pyridin-2-ylmethyl)piperazin-1-yl)propan-1-one]
Rho kinase 1 (ROCK-I)
  pKi: > 8.52
Rho kinase 2 (ROCK-II)
  pKi: > 8.52

## Cc1c[nH]c2nccc(Oc3ccc(C[C@H](N)C(=O)N4C[C@@H]5C[C@H]4CN5C)cc3F)c12 [Example 25, (S)-2-amino-3-(3-fluoro-4-((3-methyl-1H-pyrrolo[2,3-b]pyridin-4-yl)oxy)phenyl)-1-((1S,4S)-5-methyl-2,5-diazabicyclo[2.2,1]heptan-2-yl)propan-1-one]
Rho kinase 1 (ROCK-I)
  pKi: > 8.52
Rho kinase 2 (ROCK-II)
  pKi: > 8.52

## CN1C[C@@H]2C[C@H]1CN2C(=O)[C@@H](N)Cc1ccc(Oc2ccnc3[nH]cc(C#N)c23)c(F)c1 [Example 223, 4-(4-((S)-2-amino-3-((1S,4S)-5-methyl-2,5-diazabicyclo[2.2.1]heptan-2-yl)-3-oxopropyl)-2-fluorophenoxy)-1H-pyrrolo[2,3-b]pyridine-3-carbonitrile]
Rho kinase 1 (ROCK-I)
  pKi: > 8.52
Rho kinase 2 (ROCK-II)
  pKi: > 8.52

## COCc1c[nH]c2nccc(Oc3ccc(C[C@H](N)C(=O)N4CCN(C)CC4)cc3F)c12 [Example 215, (S)-2-amino-3-(3-fluoro-4-((3-(methoxymethyl)-1H-pyrrolo[2,3-b]pyridin-4-yl)oxy)phenyl)-1-(4-methylpiperazin-1-yl)propan-1-one]
Rho kinase 1 (ROCK-I)
  pKi: 7.52 to 8.52
Rho kinase 2 (ROCK-II)
  pKi: 7.52 to 8.52

## Cc1c[nH]c2nccc(Oc3ccc(CC(N)C(=O)N4CCCC4c4ccccc4)cc3F)c12 (single isomer, unassigned) [Example 84, 2-amino-3-(3-fluoro-4-((3-methyl-1H-pyrrolo[2,3-b]pyridin-4-yl)oxy)phenyl)-1-(2-phenylpyrrolidin-1-yl)propan-1-one]
Rho kinase 1 (ROCK-I)
  pKi: 7.52 to 8.52
Rho kinase 2 (ROCK-II)
  pKi: 7.52 to 8.52

## CN[C@@H](Cc1ccc(Oc2ccnc3[nH]ccc23)cc1)C(=O)NC1CCCCC1 [Example 131, (S)-3-(4-((1H-pyrrolo[2,3-b]pyridin-4-yl)oxy)phenyl)-N-cyclohexyl-2-(methylamino)propanamide]
Rho kinase 1 (ROCK-I)
  pKi: 7.52 to 8.52
Rho kinase 2 (ROCK-II)
  pKi: > 8.52

## N[C@@H](Cc1ccc(Oc2ccnc3[nH]cc(-c4ccc(O)cc4)c23)cc1)C(=O)N1CCN(Cc2ccccc2)CC1 [Example 200, (S)-2-amino-1-(4-benzylpiperazin-1-yl)-3-(4-((3-(4-hydroxyphenyl)-1H-pyrrolo[2,3-b]pyridin-4-yl)oxy)phenyl)propan-1-one]
Rho kinase 1 (ROCK-I)
  pKi: > 8.52
Rho kinase 2 (ROCK-II)
  pKi: > 8.52

## N[C@@H](Cc1ccc(Oc2ccnc3[nH]cc(Br)c23)c(F)c1)C(=O)NC1CCCCC1 [Example 186, (S)-2-amino-3-(4-((3-bromo-1H-pyrrolo[2,3-b]pyridin-4-yl)oxy)-3-fluorophenyl)-N-cyclohexylpropanamide]
Rho kinase 1 (ROCK-I)
  pKi: > 8.52
Rho kinase 2 (ROCK-II)
  pKi: > 8.52

## Cc1c[nH]c2nccc(Oc3ccc(C[C@H](N)C(=O)N4CCN(Cc5ccnnc5)CC4)cc3F)c12 [Example 153, (S)-2-amino-3-(3-fluoro-4-((3-methyl-1H-pyrrolo[2,3-b]pyridin-4-yl)oxy)phenyl)-1-(4-(pyridazin-4-ylmethyl)piperazin-1-yl)propan-1-one]
Rho kinase 1 (ROCK-I)
  pKi: > 8.52
Rho kinase 2 (ROCK-II)
  pKi: > 8.52

## Cc1c[nH]c2nccc(Oc3ccc(C[C@H](N)C(=O)N4C[C@H]5CN(C)C[C@H]5C4)cc3F)c12 [Example 30, (S)-2-amino-3-(3-fluoro-4-((3-methyl-1H-pyrrolo[2,3-b]pyridin-4-yl)oxy)phenyl)-1-((3aR,6aS)-5-methylhexahydropyrrolo[3,4-c]pyrrol-2(1H)-yl)propan-1-one]
Rho kinase 1 (ROCK-I)
  pKi: > 8.52
Rho kinase 2 (ROCK-II)
  pKi: > 8.52

## N[C@H](Cc1ccc(Oc2ccnc3[nH]ccc23)cc1)C(=O)Nc1ccccc1 [Example 110, (R)-3-(4-((1H-pyrrolo[2,3-b]pyridin-4-yl)oxy)phenyl)-2-amino-N-phenylpropanamide]
Rho kinase 1 (ROCK-I)
  pKi: < 7.52
Rho kinase 2 (ROCK-II)
  pKi: 7.52 to 8.52

## Cc1c[nH]c2nccc(Oc3ccc(C[C@H](N)C(=O)N(C)C4CCCCC4)cc3)c12 [Example 134, (S)-2-amino-N-cyclohexyl-N-methyl-3-(4-((3-methyl-1H-pyrrolo[2,3-b]pyridin-4-yl)oxy)phenyl)propanamide]
Rho kinase 1 (ROCK-I)
  pKi: > 8.52
Rho kinase 2 (ROCK-II)
  pKi: > 8.52

## N[C@H](Cc1cc(F)c(Oc2ccnc3[nH]ccc23)c(F)c1)C(=O)NC1CCCCC1 [Example 229, (R)-3-(4-((1H-pyrrolo[2,3-b]pyridin-4-yl)oxy)-3,5-difluorophenyl)-2-amino-N-cyclohexylpropanamide]
Rho kinase 1 (ROCK-I)
  pKi: 7.52 to 8.52
Rho kinase 2 (ROCK-II)
  pKi: 7.52 to 8.52

## CN1CCC(NC(=O)[C@@H](N)Cc2ccc(Oc3ccnc4[nH]cc(-c5cncs5)c34)c(F)c2)CC1 [Example 205, (S)-2-amino-3-(3-fluoro-4-((3-(thiazol-5-yl)-1H-pyrrolo[2,3-b]pyridin-4-yl)oxy)phenyl)-N-(1-methylpiperidin-4-yl)propanamide]
Rho kinase 1 (ROCK-I)
  pKi: > 8.52
Rho kinase 2 (ROCK-II)
  pKi: > 8.52

## Cc1c[nH]c2ncnc(Oc3ccc(C[C@H](N)C(=O)N4CCc5ccccc5C4)cc3F)c12 [Example 124, (S)-2-amino-1-(3,4-dihydroisoquinolin-2(1H)-yl)-3-(3-fluoro-4-((5-methyl-7H-pyrrolo[2,3-d]pyrimidin-4-yl)oxy)phenyl)propan-1-one]
Rho kinase 1 (ROCK-I)
  pKi: > 8.52
Rho kinase 2 (ROCK-II)
  pKi: > 8.52

## Cc1c[nH]c2nccc(Oc3ccc(C[C@H](N)C(=O)N4CC5(CNC5)C4)cc3F)c12 [Example 29, (S)-2-amino-3-(3-fluoro-4-((3-methyl-1H-pyrrolo[2,3-b]pyridin-4-yl)oxy)phenyl)-1-(2,6-diazaspiro[3.3]heptan-2-yl)propan-1-one]
Rho kinase 1 (ROCK-I)
  pKi: > 8.52
Rho kinase 2 (ROCK-II)
  pKi: > 8.52

## Cc1c[nH]c2nccc(Oc3ccc(C[C@H](N)C(=O)NC4CCOCC4)cc3)c12 [Example 90, (S)-2-amino-3-(4-((3-methyl-1H-pyrrolo[2,3-b]pyridin-4-yl)oxy)phenyl)-N-(tetrahydro-2H-pyran-4-yl)propanamide]
Rho kinase 1 (ROCK-I)
  pKi: > 8.52
Rho kinase 2 (ROCK-II)
  pKi: > 8.52

## Cc1c[nH]c2ncnc(Oc3ccc(C[C@H](N)C(=O)N4C[C@@H]5C[C@H]4CN5C)cc3F)c12 [Example 121, 2-amino-3-(3-fluoro-4-((5-methyl-7H-pyrrolo[2,3-d]pyrimidin-4-yl)oxy)phenyl)-1-((1S,4S)-5-methyl-2,5-diazabicyclo[2.2.1]heptan-2-yl)propan-1-one]
Rho kinase 1 (ROCK-I)
  pKi: 7.52 to 8.52
Rho kinase 2 (ROCK-II)
  pKi: 7.52 to 8.52

## N#Cc1c[nH]c2nccc(Oc3ccc(C[C@H](N)C(=O)NC4CCCCC4)cc3)c12 [Example 219, (S)-2-amino-3-(4-((3-cyano-1H-pyrrolo[2,3-b]pyridin-4-yl)oxy)phenyl)-N-cyclohexylpropanamide]
Rho kinase 1 (ROCK-I)
  pKi: > 8.52
Rho kinase 2 (ROCK-II)
  pKi: > 8.52

## Cc1cccc(CN2CCN(C(=O)C(N)Cc3ccc(Oc4ccnc5[nH]cc(C)c45)c(F)c3)CC2)c1 (stereo not shown) [Example 73, 2-amino-3-(3-fluoro-4-((3-methyl-1H-pyrrolo[2,3-b]pyridin-4-yl)oxy)phenyl)-1-(4-(3-methylbenzyl)piperazin-1-yl)propan-1-one]
Rho kinase 1 (ROCK-I)
  pKi: > 8.52
Rho kinase 2 (ROCK-II)
  pKi: > 8.52

## Cc1c[nH]c2nccc(Oc3ccc(C[C@H](N)C(=O)N4CC(N(C)C)C4)cc3F)c12 [Example 41, (S)-2-amino-1-(3-(dimethylamino)azetidin-1-yl)-3-(3-fluoro-4-((3-methyl-1H-pyrrolo[2,3-b]pyridin-4-yl)oxy)phenyl)propan-1-one]
Rho kinase 1 (ROCK-I)
  pKi: > 8.52
Rho kinase 2 (ROCK-II)
  pKi: > 8.52

## Cc1c[nH]c2nccc(Oc3ccc(CC(N)C(=O)Nc4ccncc4)cc3F)c12 (stereo not shown) [Example 71, 2-amino-3-(3-fluoro-4-((3-methyl-1H-pyrrolo[2,3-b]pyridin-4-yl)oxy)phenyl)-N-(pyridin-4-yl)propanamide]
Rho kinase 1 (ROCK-I)
  pKi: > 8.52
Rho kinase 2 (ROCK-II)
  pKi: > 8.52

## N[C@@H](Cc1ccc(Oc2ccnc3[nH]cc(C#CCO)c23)cc1)C(=O)NC1CCCCC1 [Example 217, (S)-2-amino-N-cyclohexyl-3-(4-((3-(3-hydroxyprop-1-yn-1-yl)-1H-pyrrolo[2,3-b]pyridin-4-yl)oxy)phenyl)propanamide]
Rho kinase 1 (ROCK-I)
  pKi: > 8.52
Rho kinase 2 (ROCK-II)
  pKi: > 8.52

## N[C@@H](Cc1ccc(Oc2ccnc3[nH]ccc23)cn1)C(=O)N1CCN(Cc2ccccc2)CC1 [Example 228, (S)-3-(5-((1H-pyrrolo[2,3-b]pyridin-4-yl)oxy)pyridin-2-yl)-2-amino-1-(4-benzylpiperazin-1-yl)propan-1-one]
Rho kinase 1 (ROCK-I)
  pKi: < 7.52
Rho kinase 2 (ROCK-II)
  pKi: 7.52 to 8.52

## N[C@@H](Cc1ccc(Oc2ccnc3[nH]cc(-c4cccnc4)c23)cc1)C(=O)N1CCN(Cc2ccccc2)CC1 [Example 194, (S)-2-amino-1-(4-benzylpiperazin-1-yl)-3-(4-((3-(pyridin-3-yl)-1H-pyrrolo[2,3-b]pyridin-4-yl)oxy)phenyl)propan-1-one]
Rho kinase 1 (ROCK-I)
  pKi: > 8.52
Rho kinase 2 (ROCK-II)
  pKi: > 8.52
